Here are results for 2 compounds from US9708639B2, “Method for quantifying amino acids with pyrophosphate” (TOYAMA PREFECTURE, priority 2012, dated 2017).

Experiment [1] concerns the target T1, Thermotoga-derived LysRS (Thermotoga maritima, UniProt Q9X231).
T1 construct: His tag (C); made in house; host or cells: Escherichia coli BL21 (DE3)
T1 sequence (Q9X231 1-502): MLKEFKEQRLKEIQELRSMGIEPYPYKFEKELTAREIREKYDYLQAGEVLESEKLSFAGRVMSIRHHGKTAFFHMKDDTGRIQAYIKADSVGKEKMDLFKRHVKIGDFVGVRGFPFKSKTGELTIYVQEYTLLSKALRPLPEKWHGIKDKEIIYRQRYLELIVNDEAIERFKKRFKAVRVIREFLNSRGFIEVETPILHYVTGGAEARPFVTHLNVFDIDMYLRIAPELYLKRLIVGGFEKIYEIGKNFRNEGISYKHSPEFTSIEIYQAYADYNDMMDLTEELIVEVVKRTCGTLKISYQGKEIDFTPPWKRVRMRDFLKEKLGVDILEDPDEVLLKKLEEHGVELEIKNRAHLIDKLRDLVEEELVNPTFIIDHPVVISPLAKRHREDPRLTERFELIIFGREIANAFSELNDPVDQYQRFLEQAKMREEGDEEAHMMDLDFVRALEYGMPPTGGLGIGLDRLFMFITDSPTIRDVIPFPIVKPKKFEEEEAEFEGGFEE
Kind of experiment: Calibration curve for amino acid by coupled PPDK and LDH. The note with it: Lys 0 to 200 μM; hydroxylamine 1000 mM; LysRS 0.1 mg/ml (10 mU/ml); 30° C. It counts as biochemical, Thermotoga maritima MSB8 strain. The protocol: (§1) A test sample containing an amino acid as the measurement subject and a reaction mixture for quantifying amino acid having the following composition were mixed. The mixture was left standing at 30° C. to allow the AARS, PPDK, and LDH reactions to advance, and decrease of the absorbance at 340 nm was measured. The volume of the mixture was 200 μl, and after the reaction mixture was put into the wells of a 96-well microplate, the absorbance was measured with a microplate reader.
(§2) Reaction mixture for quantifying amino acid: 20 mM Tris-HCl (pH 7.0), 10 mM MgCl2, 10 mM NH4Cl, 0.3 mM PEP, 0.3 mM NADH, 0.2 mM ATP, 0.2 mM AMP, 70 mU/ml PPDK, 50 U/ml LDH, and AARS (concentrations are final concentrations obtained after mixing with test sample)
(§3) Calibration curves were prepared by using the AARS activity measurement method described in 8. and standard Cys, Lys, Ser, and Tyr solutions as test samples. The concentrations of the aforementioned amino acids were set so that the final concentrations thereof are in the range of 0 to 200 μM. The hydroxylamine concentration was 200 mM for the samples used for the Tyr calibration curve, or 1000 mM for the samples used for the Cys, Lys, and Ser calibration curves. The Thermotoga-derived CysRS, LysRS, SerRS, TyrRS, and the Thermus-derived TyrRS were added to the reaction mixture at final concentrations of 0.2 (7 mU/ml), 0.1 (10 mU/ml), 0.2 (8 mU/ml), 0.4 (40 mU/ml), and 0.1 mg/ml, respectively.
(§4) Calibration curves could be similarly prepared when adding pyrophosphate instead of the aforementioned amino acids, but the inclinations of the Lys, Ser, and Tyr calibration curves (absorbance change per mM of substrate) were 80% or more of the inclination of the pyrophosphate calibration curve. […] The inclination of the Cys calibration curve was slightly smaller than those of the other calibration curves, and it is considered that this is because a part of cysteine in the test sample was converted into cystine by air oxidation, and the real concentration of cysteine was reduced.

Experiment [2] deals with T2, Thermotoga-derived TyrRS (Thermotoga maritima, UniProt Q9WYU8).
T2 construct: The amplification products were each inserted into pET-28a to obtain plasmids for expression of respective AARSs; His tag (N); made in house; host or cells: Escherichia coli BL21 (DE3)
T2 sequence (Q9WYU8 1-401): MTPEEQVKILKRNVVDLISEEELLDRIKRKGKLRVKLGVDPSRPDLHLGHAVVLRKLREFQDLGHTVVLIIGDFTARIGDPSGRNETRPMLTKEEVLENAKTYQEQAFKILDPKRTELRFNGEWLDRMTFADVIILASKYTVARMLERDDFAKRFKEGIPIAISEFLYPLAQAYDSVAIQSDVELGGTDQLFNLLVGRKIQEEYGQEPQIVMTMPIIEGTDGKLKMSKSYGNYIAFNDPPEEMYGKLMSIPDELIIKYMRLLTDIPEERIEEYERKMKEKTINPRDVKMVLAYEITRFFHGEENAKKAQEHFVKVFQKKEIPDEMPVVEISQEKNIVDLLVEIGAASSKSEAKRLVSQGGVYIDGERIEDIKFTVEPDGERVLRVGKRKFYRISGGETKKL
Described as above. The experiment is classed as biochemical, Thermotoga maritima MSB8 strain. The note with it: Tyr 0 to 200 μM; hydroxylamine 200 mM; TyrRS 0.4 mg/ml (40 mU/ml); 30° C. On the procedure:
as §1, §2, §3, §4

As to `NCCCC[C@H](N)C(=O)O` [Lys, L-lysine], the “inclination of calibration curve relative to inclination of the pyrophosphate calibration curve” value in experiment [1] was not below 80%.
Regarding `N[C@@H](Cc1ccc(O)cc1)C(=O)O` [Tyr, L-tyrosine], the “inclination of calibration curve relative to inclination of the pyrophosphate calibration curve” value in experiment [2] was not below 80%.
